Reference: patent US20120053200A1, “BACE 2 INHIBITORS” (priority 2010, published 2012)

target: T1, BACE2 (Rattus norvegicus, UniProt Q6IE75); assay: Assay for BACE inhibition by measuring cellular TMEM27 cleavage (INS-TMEM27 cells, ELISA of shed TMEM27); format: cell-based; details: inhibition of human TMEM27 cleavage by endogenous cellular BACE2 in INS1e-derived INS-TMEM27 rat cell line; ELISA of shed TMEM27 in supernatant
T1 construct: endogenous cellular BACE2 in the Ins1e rat cell line; endogenous in cells; host or cells: INS-TMEM27 (INS1e-derived rat beta-cell line with doxycycline-inducible full-length hTMEM27)
T1 sequence (Q6IE75 63-514): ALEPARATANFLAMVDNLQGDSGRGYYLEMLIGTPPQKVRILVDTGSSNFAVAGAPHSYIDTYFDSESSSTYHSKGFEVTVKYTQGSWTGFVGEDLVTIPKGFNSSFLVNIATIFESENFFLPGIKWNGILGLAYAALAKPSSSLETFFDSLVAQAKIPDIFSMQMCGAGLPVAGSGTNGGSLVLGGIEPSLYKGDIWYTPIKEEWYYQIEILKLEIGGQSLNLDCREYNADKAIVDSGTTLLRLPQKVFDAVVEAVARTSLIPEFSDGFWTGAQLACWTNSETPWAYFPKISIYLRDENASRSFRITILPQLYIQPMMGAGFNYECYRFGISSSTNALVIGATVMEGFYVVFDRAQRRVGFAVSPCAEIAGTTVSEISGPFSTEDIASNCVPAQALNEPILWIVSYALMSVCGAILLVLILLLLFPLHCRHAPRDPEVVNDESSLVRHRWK
Excerpt: Assay for […] Inhibition by Measuring Cellular TMEM27 Cleavage
This assay uses the principle of inhibition of human TMEM27 cleavage by endogenous cellular BACE2 in the Ins1e rat cell line and shedding from the cell surface into the culture medium, followed by detection in an ELISA assay. Inhibition of BACE2 prevents the cleavage and shedding in a dose-dependent manner.
The stable cell line “INS-TMEM27” represents an INS1e-derived cell line with inducible expression (using the TetOn system) of full-length hTMEM27 in a doxycycline-dependent manner. The cells were cultured throughout the experiment in RPMI1640+Glutamax (Invitrogen) Penicillin/Streptomycin, 10% Fetal bovine serum, 100 mM pyruvate, […] beta-mercatptoethanol, 100 micrograms/ml G418 and 100 microgram/ml hygromycin and were grown in adherent culture at 37° C. in a standard CO2 cell culture incubator.
INS-TMEM27 cells were seeded in 96-well plates. After 2 days in culture, BACE2 inhibitor was added in a range of concentrations as required by the assay and after a further two hours, doxycycline was added to a final concentration of 500 ng/ml. The cells were incubated for a further 46 hours and the supernatant harvested for detection of shed TMEM27.
An ELISA assay (using a pair of mouse anti-human-TMEM27 antibodies, raised against the extracellular domain of TMEM27) was used for detection of TMEM27 in the culture medium. An IC50 for BACE2 inhibition was calculated using the ELISA readout for each inhibitor concentration with standard curve-fitting software.
The inhibitory activity, given as an IC50 value, of the compounds of Examples 1 to 32 and 34 to 74 were as follows.

In order of rising IC50:
1. CCn1cc(CNC[C@@H](O)[C@H](Cc2ccccc2)NC(=O)c2cc(C(=O)N3CCCC3c3cccs3)cc(N(C)S(C)(=O)=O)c2)cn1 (stereo partly drawn) [Example 38, N-{(1S,2R)-1-Benzyl-3-[(1-ethyl-1H-pyrazol-4-ylmethyl)-amino]-2-hydroxy-propyl}-3-(methanesulfonyl-methyl-amino)-5-(2-thiophen-2-yl-pyrrolidine-1-carbonyl)-benzamide]  0.0003 µM
2. Cc1cc(C(=O)N[C@@H](Cc2ccccc2)[C@H](O)CNCc2cccc(C(F)(F)F)c2)cc(C(=O)N2CCCC2c2ccccc2)c1 (stereo partly drawn) [Example 51, N-[(1S,2R)-1-Benzyl-2-hydroxy-3-(3-trifluoromethyl-benzylamino)-propyl]-3-methyl-5-(2-phenyl-pyrrolidine-1-carbonyl)-benzamide]  0.0004 µM
3. CCn1cc(CNC[C@@H](O)[C@H](Cc2ccccc2)NC(=O)c2cc(C)cc(C(=O)N3CCCC3c3ccccc3)c2)cn1 (stereo partly drawn) [Example 36, N-{(1S,2R)-1-Benzyl-3-[(1-ethyl-1H-pyrazol-4-ylmethyl)-amino]-2-hydroxy-propyl}-3-methyl-5-(2-phenyl-pyrrolidine-1-carbonyl)-benzamide]  0.001 µM
4. CCn1cc(CNC[C@@H](O)[C@H](Cc2ccccc2)NC(=O)c2cc(C)cc(C(=O)N3CCCC3c3cccs3)c2)cn1 (stereo partly drawn) [Example 39, N-{(1S,2R)-1-Benzyl-3-[(1-ethyl-1H-pyrazol-4-ylmethyl)-amino]-2-hydroxy-propyl}-3-methyl-5-(2-thiophen-2-yl-pyrrolidine-1-carbonyl)-benzamide]  0.001 µM
5. CCn1cc(CNC[C@@H](O)[C@H](Cc2ccccc2)NC(=O)c2cc(C)cc(C(=O)N(C)Cc3ccccn3)c2)cn1 [Example 37, N-{(1S,2R)-1-Benzyl-3-[(1-ethyl-1H-pyrazol-4-ylmethyl)-amino]-2-hydroxy-propyl}-5,N′-dimethyl-N′-pyridin-2-ylmethyl-isophthalamide]  0.001 µM
6. Cc1cc(C(=O)N[C@@H](Cc2ccccc2)[C@H](O)CNCc2cccc(OC(F)(F)F)c2)cc(C(=O)N2CCCC2c2ccccc2)c1 (stereo partly drawn) [Example 43, N-[(1S,2R)-1-Benzyl-2-hydroxy-3-(3-trifluoromethoxy-benzylamino)-propyl]-3-methyl-5-(2-phenyl-pyrrolidine-1-carbonyl)-benzamide]  0.003 µM
7. O=C(N[C@@H](Cc1ccccc1)[C@H](O)CNCc1cccc(C(F)(F)F)c1)c1cccc(C(=O)N2CCC[C@H]2c2ccc(F)cc2)c1 [Example 67, N-[(1S,2R)-1-Benzyl-2-hydroxy-3-(3-trifluoromethyl-benzylamino)-propyl]-3-[(S)-2-(4-fluoro-phenyl)-pyrrolidine-1-carbonyl]-benzamide]  0.004 µM
8. Cc1csc([C@H]2CCCN2C(=O)c2cccc(C(=O)N[C@@H](Cc3ccccc3)[C@H](O)CNCc3cccc(C(F)(F)F)c3)c2)n1 [Example 11, N-[(1S,2R)-1-Benzyl-2-hydroxy-3-(3-trifluoromethyl-benzylamino)-propyl]-3-[(R)-2-(4-methyl-thiazol-2-yl)-pyrrolidine-1-carbonyl]-benzamide]  0.009 µM
9. Cc1cc(C(=O)N[C@@H](Cc2ccccc2)[C@H](O)CNCc2cccc(OC(F)(F)F)c2)cc(C(=O)N2CCC[C@@H]2c2nc(C)cs2)c1 [Example 10, N-[(1S,2R)-1-Benzyl-2-hydroxy-3-(3-trifluoromethoxy-benzylamino)-propyl]-3-methyl-5-[(R)-2-(4-methyl-thiazol-2-yl)-pyrrolidine-1-carbonyl]-benzamide]  0.014 µM
10. Cc1csc([C@H]2CCCN2C(=O)c2cccc(C(=O)N[C@@H](Cc3ccccc3)[C@H](O)CNCc3cccc(OC(F)(F)F)c3)c2)n1 [Example 21, N-[(1S,2R)-1-Benzyl-2-hydroxy-3-(3-trifluoromethoxy-benzylamino)-propyl]-3-[(R)-2-(4-methyl-thiazol-2-yl)-pyrrolidine-1-carbonyl]-benzamide]  0.037 µM
11. Cc1cc(C(=O)N[C@@H](Cc2ccccc2)[C@H](O)CNCc2cccc(OC(F)(F)F)c2)cc(C(=O)N(C)Cc2ccccn2)c1 [Example 44, N-[(1S,2R)-1-Benzyl-2-hydroxy-3-(3-trifluoromethoxy-benzylamino)-propyl]-5,N′-dimethyl-N′-pyridin-2-ylmethyl-isophthalamide]  0.049 µM
12. Cc1cc(C2CCCN2C(=O)c2cccc(C(=O)N[C@@H](Cc3ccccc3)[C@H](O)CNCc3cccc(C(F)(F)F)c3)c2)on1 (stereo partly drawn) [Example 16, N-[(1S,2R)-1-Benzyl-2-hydroxy-3-(3-trifluoromethyl-benzylamino)-propyl]-3-[2-(3-methyl-isoxazol-5-yl)-pyrrolidine-1-carbonyl]-benzamide]  0.055 µM
13. CN(c1cc(C(=O)N[C@@H](Cc2ccccc2)[C@H](O)CNCc2cccc(OC(F)(F)F)c2)cc(C(=O)N2CCCC2c2ccccc2)c1)S(C)(=O)=O (stereo partly drawn) [Example 42, N-[(1S,2R)-1-Benzyl-2-hydroxy-3-(3-trifluoromethoxy-benzylamino)-propyl]-3-(methanesulfonyl-methyl-amino)-5-(2-phenyl-pyrrolidine-1-carbonyl)-benzamide]  0.062 µM
14. O=C(N[C@@H](Cc1ccccc1)[C@H](O)CNCc1cccc(C(F)(F)F)c1)c1cccc(C(=O)N2CCCC2C2CCCC2)c1 (stereo partly drawn) [Example 72, N-[(1S,2R)-1-Benzyl-2-hydroxy-3-(3-trifluoromethyl-benzylamino)-propyl]-3-(2-cyclopentyl-pyrrolidine-1-carbonyl)-benzamide]  0.066 µM
15. O=C(N[C@@H](Cc1ccccc1)[C@H](O)CNCc1cccc(OC(F)(F)F)c1)c1cccc(C(=O)N2CCCC2c2cccnc2)c1 (stereo partly drawn) [Example 25, N-[(1S,2R)-1-Benzyl-2-hydroxy-3-(3-trifluoromethoxy-benzylamino)-propyl]-3-(2-pyridin-3-yl-pyrrolidine-1-carbonyl)-benzamide]  0.07 µM
16. COc1ccc(C2CCCN2C(=O)c2cccc(C(=O)N[C@@H](Cc3ccccc3)[C@H](O)CNCc3cccc(C(F)(F)F)c3)c2)cc1 (stereo partly drawn) [Example 56, N-[(1S,2R)-1-Benzyl-2-hydroxy-3-(3-trifluoromethyl-benzylamino)-propyl]-3-[2-(4-methoxy-phenyl)-pyrrolidine-1-carbonyl]-benzamide]  0.115 µM
17. O=C(N[C@@H](Cc1ccccc1)[C@H](O)CNCc1cccc(C(F)(F)F)c1)c1cccc(C(=O)N2CCC[C@@H]2c2ccccc2)c1 [Example 66, N-[(1S,2R)-1-Benzyl-2-hydroxy-3-(3-trifluoromethyl-benzylamino)-propyl]-3-((R)-2-phenyl-pyrrolidine-1-carbonyl)-benzamide]  0.314 µM
18. COc1cccc(CNC[C@@H](O)[C@H](Cc2ccccc2)NC(=O)c2cccc(C(=O)N3CCCC3c3ccc(C)s3)c2)c1 (stereo partly drawn) [Example 27, N-[(1S,2R)-1-Benzyl-2-hydroxy-3-(3-methoxy-benzylamino)-propyl]-3-[2-(5-methyl-thiophen-2-yl)-pyrrolidine-1-carbonyl]-benzamide]  0.314 µM
19. O=C(N[C@@H](Cc1ccccc1)[C@H](O)CNCc1cccc(OC(F)(F)F)c1)c1cccc(C(=O)N2CCCC2c2ccncc2)c1 (stereo partly drawn) [Example 4, N-[(1S,2R)-1-Benzyl-2-hydroxy-3-(3-trifluoromethoxy-benzylamino)-propyl]-3-(2-pyridin-4-yl-pyrrolidine-1-carbonyl)-benzamide]  0.471 µM
20. CCc1ccc(C2CCCN2C(=O)c2cccc(C(=O)N[C@@H](Cc3ccccc3)[C@H](O)CNCc3cccc(C(F)(F)F)c3)c2)cc1 (stereo partly drawn) [Example 62, N-[(1S,2R)-1-Benzyl-2-hydroxy-3-(3-trifluoromethyl-benzylamino)-propyl]-3-[2-(4-ethyl-phenyl)-pyrrolidine-1-carbonyl]-benzamide]  0.764 µM
21. CC1(C)[C@@H]2CC[C@@]1(C)CN(C(=O)c1cccc(C(=O)N[C@@H](Cc3ccccc3)[C@H](O)CNCc3cccc(OC(F)(F)F)c3)c1)C2 [Example 8, N-[(1S,2R)-1-Benzyl-2-hydroxy-3-(3-trifluoromethoxy-benzylamino)-propyl]-3-((1R,5S)-1,8,8-trimethyl-3-aza-bicyclo[3.2.1]octane-3-carbonyl)-benzamide]  0.822 µM
